Test results as given in patent publication US7662822B2, “Substituted azaquinazolines having an antiviral action” (Bayer Schering Pharma Aktiengesellschaft, priority 2004, dated 2010).
pEC50: −log10 of the molar value. Structures can show the parent of a compound that is named as a salt. Where two headings read alike, the source gives them in different places.

Key:
[1] = Anti-HCMV cytopathogenicity test: cytostatic effect on NHDF cells; assay type: cell-based; conditions: human, human prepuce fibroblasts (NHDF cells), 6 days incubation, visual assessment
Experimental: (§1) Anti-HCMV (Anti-Human Cytomegalovirus) Cytopathogenicity Tests
(§2) The test compounds are employed as 50 millimolar (mM) solutions in dimethyl sulphoxide (DMSO). Ganciclovir®, Foscarnet® and Cidofovir® are used as reference compounds. After addition of in each case 2 μl of the 50, 5, 0.5 and 0.05 mM DMSO stock solutions to 98 μl portions of cell culture medium in row 2 A-H for duplicate determinations, 1:2 dilutions are carried out with 50 μl portions of medium up to row 11 of the 96-well plate. The wells in rows 1 and 12 each contain 50 μl of medium. 150 μl of a suspension of 1×10^4 cells (human prepuce fibroblasts [NHDF]) are then pipetted into each of the wells (row 1=cell control) and, in rows 2-12, a mixture of HCMV-infected and uninfected NHDF cells (M.O.I.=0.001−0.002), i.e. 1-2 infected cells per 1000 uninfected cells. Row 12 (without substance) serves as virus control. The final test concentrations are 250-0.0005 μM. The plates are incubated at 37° C./5% CO2 for 6 days, i.e. until all the cells are infected in the virus controls (100% cytopathogenic effect [CPE]). The wells are then fixed and stained by adding a mixture of formalin and Giemsa's dye (30 minutes), washed with double-distilled water and dried in a drying oven at 50° C. The plates are then assessed visually using an overhead microscope (plaque multiplier from Technomara).
(§3) The following data can be acquired from the test plates:
CC50 (NHDF)=substance concentration in μM at which no visible cytostatic effects on the cells are evident by comparison with the untreated cell control;

[2] = system: HCMV (human cytomegalovirus); assay: Anti-HCMV cytopathogenicity test: inhibition of CPE; assay type: cell-based; conditions: for pEC50: read-out: HCMV EC50
Experimental: as §1, §2, §3
EC50 (HCMV)=substance concentration in μM which inhibits the CPE (cytopathic effect) by 50% compared with the untreated virus control;
SI (selectivity index)=CC50 (NHDF)/EC50 (HCMV).

[3] = Human betaherpesvirus 5, 144 h, HCMV-infected NHDF cells, M.O.I. 0.001-0.002, 6 days, inhibition of CPE by 50%

Row | pEC50 [2, 3] | Structure (SMILES) | CC50 at 6 days [1] [µM] | SI HCMV (selectivity index = CC50 (NHDF)/EC50 (HCMV)) [2] | pEC50 ([2]; Human betaherpesvirus 5, NHDF, 144 h)
1 | – | COc1cccc(N2CCN(C3=Nc4cnccc4C(CC(=O)O)N3c3cccc(C(F)(F)F)c3)CC2)c1 (stereo not drawn) [Example 4, {2-[4-(3-Methoxyphenyl)piperazin-1-yl]-3-[3-(trifluoromethyl)phenyl]-3,4-dihydropyrido[3,4-d]-pyrimidin-4-yl}acetic acid hydrochloride] | 94 | 470 | 6.70
2 | 6.85 | COc1ccc(C)cc1N1C(N2CCN(c3ccc(F)cc3)CC2)=Nc2ccncc2C1CC(=O)O (stereo not drawn) [Example 8, [2-[4-(4-Fluorophenyl)piperazin-1-yl]-3-(2-methoxy-5-methylphenyl)-3,4-dihydropyrido[4,3-d]-pyrimidin-4-yl] acetic acid] | 250 | 1786 | –
3 | 7.30 | COc1ccc(C(F)(F)F)cc1N1C(N2CCN(c3ccc(F)cc3)CC2)=Nc2ccncc2C1CC(=O)O (stereo not drawn) [Example 9, {2-[4-(4-Fluorophenyl)piperazin-1-yl]-3-[2-methoxy-5-(trifluoromethyl)phenyl]-3,4-dihydro-pyrido[4,3-d]pyrimidin-4-yl}acetic acid] | 94 | 1880 | –
